# Test results: PubChem BioAssay (NCI)
#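 The concentration for 50% growth inhibition is given as GI50. TGI is the concentration that stops growth completely.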
# Key:
# Assay in all cases: NCI tumour cell line growth inhibition, 384-well format
# 786-0 renal = system: 786-0 renal
# A498 renal = system: A498 renal
# A549 NSCLC = system: A549 NSCLC
# ACHN renal = system: ACHN renal
# BT-549 breast = system: BT-549 breast
# CAKI-1 renal = system: CAKI-1 renal
# CCRF-CEM leukemia = system: CCRF-CEM leukemia
# DU-145 prostate = system: DU-145 prostate
# EKVX NSCLC = system: EKVX NSCLC
# HCT-116 colon = system: HCT-116 colon
# HCT-15 colon = system: HCT-15 colon
# HL-60(TB) leukemia = system: HL-60(TB) leukemia
# HOP-62 NSCLC = system: HOP-62 NSCLC
# HOP-92 NSCLC = system: HOP-92 NSCLC
# HS 578T breast = system: HS 578T breast
# HT29 colon = system: HT29 colon
# IGROV1 ovarian = system: IGROV1 ovarian
# K-562 leukemia = system: K-562 leukemia
# KM12 colon = system: KM12 colon
# LOX IMVI melanoma = system: LOX IMVI melanoma
# M14 melanoma = system: M14 melanoma
# MALME-3M melanoma = system: MALME-3M melanoma
# MCF7 breast = system: MCF7 breast
# MDA-MB-231 breast = system: MDA-MB-231 breast
# MDA-MB-435 melanoma = system: MDA-MB-435 melanoma
# MDA-MB-468 breast = system: MDA-MB-468 breast
# MOLT-4 leukemia = system: MOLT-4 leukemia
# NCI-H226 lung = system: NCI-H226 lung
# NCI-H23 lung = system: NCI-H23 lung
# NCI-H322M lung = system: NCI-H322M lung
# NCI-H522 lung = system: NCI-H522 lung
# NCI/ADR-RES ovarian = system: NCI/ADR-RES ovarian
# OVCAR-3 ovarian = system: OVCAR-3 ovarian
# OVCAR-4 ovarian = system: OVCAR-4 ovarian
# OVCAR-5 ovarian = system: OVCAR-5 ovarian
# OVCAR-8 ovarian = system: OVCAR-8 ovarian
# PC-3 prostate = system: PC-3 prostate
# RPMI-8226 leukemia = system: RPMI-8226 leukemia
# RXF 393 renal = system: RXF 393 renal
# SF-268 CNS = system: SF-268 CNS
# SF-295 CNS = system: SF-295 CNS
# SF-539 CNS = system: SF-539 CNS
# SK-MEL-2 melanoma = system: SK-MEL-2 melanoma
# SK-MEL-28 melanoma = system: SK-MEL-28 melanoma
# SK-OV-3 ovarian = system: SK-OV-3 ovarian
# SN12C renal = system: SN12C renal
# SNB-19 CNS = system: SNB-19 CNS
# SNB-75 CNS = system: SNB-75 CNS
# SW-620 colon = system: SW-620 colon
# T-47D breast = system: T-47D breast
# TK-10 renal = system: TK-10 renal
# U251 glioblastoma = system: U251 glioblastoma
# UACC-257 melanoma = system: UACC-257 melanoma
# UACC-62 melanoma = system: UACC-62 melanoma
# UO-31 renal = system: UO-31 renal
smiles,measurement,setting,value
O=P1(NCCCl)OCCCN1CCCl (stereo not given),GI50,786-0 renal,> 100 µM
same,TGI,786-0 renal,> 100 µM
same,GI50,A498 renal,> 100 µM
same,TGI,A498 renal,> 100 µM
same,GI50,A549 NSCLC,> 100 µM
same,TGI,A549 NSCLC,> 100 µM
same,GI50,ACHN renal,> 100 µM
same,TGI,ACHN renal,> 100 µM
same,GI50,BT-549 breast,> 100 µM
same,TGI,BT-549 breast,> 100 µM
same,GI50,CAKI-1 renal,> 100 µM
same,TGI,CAKI-1 renal,> 100 µM
same,GI50,CCRF-CEM leukemia,> 100 µM
same,TGI,CCRF-CEM leukemia,> 100 µM
same,GI50,DU-145 prostate,> 100 µM
same,TGI,DU-145 prostate,> 100 µM
same,GI50,EKVX NSCLC,> 100 µM
same,TGI,EKVX NSCLC,> 100 µM
same,GI50,HCT-116 colon,> 100 µM
same,TGI,HCT-116 colon,> 100 µM
same,GI50,HCT-15 colon,> 100 µM
same,TGI,HCT-15 colon,> 100 µM
same,GI50,HL-60(TB) leukemia,> 100 µM
same,TGI,HL-60(TB) leukemia,> 100 µM
same,GI50,HOP-62 NSCLC,> 100 µM
same,TGI,HOP-62 NSCLC,> 100 µM
same,GI50,HOP-92 NSCLC,> 100 µM
same,TGI,HOP-92 NSCLC,> 100 µM
same,GI50,HS 578T breast,> 100 µM
same,TGI,HS 578T breast,> 100 µM
same,GI50,HT29 colon,> 100 µM
same,TGI,HT29 colon,> 100 µM
same,GI50,IGROV1 ovarian,> 100 µM
same,TGI,IGROV1 ovarian,> 100 µM
same,GI50,K-562 leukemia,> 100 µM
same,TGI,K-562 leukemia,> 100 µM
same,GI50,KM12 colon,> 100 µM
same,TGI,KM12 colon,> 100 µM
same,GI50,LOX IMVI melanoma,> 100 µM
same,TGI,LOX IMVI melanoma,> 100 µM
same,GI50,M14 melanoma,> 100 µM
same,TGI,M14 melanoma,> 100 µM
same,GI50,MALME-3M melanoma,> 100 µM
same,TGI,MALME-3M melanoma,> 100 µM
same,GI50,MCF7 breast,> 100 µM
same,TGI,MCF7 breast,> 100 µM
same,GI50,MDA-MB-231 breast,> 100 µM
same,TGI,MDA-MB-231 breast,> 100 µM
same,GI50,MDA-MB-435 melanoma,> 100 µM
same,TGI,MDA-MB-435 melanoma,> 100 µM
same,GI50,MDA-MB-468 breast,> 100 µM
same,TGI,MDA-MB-468 breast,> 100 µM
same,GI50,MOLT-4 leukemia,> 100 µM
same,TGI,MOLT-4 leukemia,> 100 µM
same,GI50,NCI-H226 lung,> 100 µM
same,TGI,NCI-H226 lung,> 100 µM
same,GI50,NCI-H23 lung,> 100 µM
same,TGI,NCI-H23 lung,> 100 µM
same,GI50,NCI-H322M lung,> 100 µM
same,TGI,NCI-H322M lung,> 100 µM
same,GI50,NCI-H522 lung,> 100 µM
same,TGI,NCI-H522 lung,> 100 µM
same,GI50,NCI/ADR-RES ovarian,> 100 µM
same,TGI,NCI/ADR-RES ovarian,> 100 µM
same,GI50,OVCAR-3 ovarian,> 100 µM
same,TGI,OVCAR-3 ovarian,> 100 µM
same,GI50,OVCAR-4 ovarian,> 100 µM
same,TGI,OVCAR-4 ovarian,> 100 µM
same,GI50,OVCAR-5 ovarian,> 100 µM
same,TGI,OVCAR-5 ovarian,> 100 µM
same,GI50,OVCAR-8 ovarian,> 100 µM
same,TGI,OVCAR-8 ovarian,> 100 µM
same,GI50,PC-3 prostate,> 100 µM
same,TGI,PC-3 prostate,> 100 µM
same,GI50,RPMI-8226 leukemia,> 100 µM
same,TGI,RPMI-8226 leukemia,> 100 µM
same,GI50,RXF 393 renal,> 100 µM
same,TGI,RXF 393 renal,> 100 µM
same,GI50,SF-268 CNS,> 100 µM
same,TGI,SF-268 CNS,> 100 µM
same,GI50,SF-295 CNS,> 100 µM
same,TGI,SF-295 CNS,> 100 µM
same,GI50,SF-539 CNS,> 100 µM
same,TGI,SF-539 CNS,> 100 µM
same,GI50,SK-MEL-2 melanoma,> 100 µM
same,TGI,SK-MEL-2 melanoma,> 100 µM
same,GI50,SK-MEL-28 melanoma,> 100 µM
same,TGI,SK-MEL-28 melanoma,> 100 µM
same,GI50,SK-OV-3 ovarian,> 100 µM
same,TGI,SK-OV-3 ovarian,> 100 µM
same,GI50,SN12C renal,> 100 µM
same,TGI,SN12C renal,> 100 µM
same,GI50,SNB-19 CNS,> 100 µM
same,TGI,SNB-19 CNS,> 100 µM
same,GI50,SNB-75 CNS,> 100 µM
same,TGI,SNB-75 CNS,> 100 µM
same,GI50,SW-620 colon,> 100 µM
same,TGI,SW-620 colon,> 100 µM
same,GI50,T-47D breast,> 100 µM
same,TGI,T-47D breast,> 100 µM
same,GI50,TK-10 renal,> 100 µM
same,TGI,TK-10 renal,> 100 µM
same,GI50,U251 glioblastoma,> 100 µM
same,TGI,U251 glioblastoma,> 100 µM
same,GI50,UACC-257 melanoma,> 100 µM
same,TGI,UACC-257 melanoma,> 100 µM
same,GI50,UACC-62 melanoma,> 100 µM
same,TGI,UACC-62 melanoma,> 100 µM
same,GI50,UO-31 renal,> 100 µM
same,TGI,UO-31 renal,> 100 µM
